Read-outs that look alike come from different tables or passages of the source.
Assays:
Assay type in all cases: in vivo, Mycosphaerella graminicola on wheat plants (variety Yuma)
[1] = tested on: Mycosphaerella graminicola; Anamorph: Septoria tritici; Bayer Code SEPTTR (standard laboratory isolate, SI SEPTTR); test: Type A (high volume) assay, leaf blotch of wheat, standard laboratory SEPTTR isolate (SI SEPTTR); conditions: Zymoseptoria tritici, 24 h, read-out: Disease Control, SI SEPTTR Type A Assay (50 ppm) 1 DP
Summary of the method: (§1)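 Wheat seedlings (Yuma, first leaf emerged) sprayed with acetone/Triton X-100 solutions (Type A) or 10% EC diluted in 0.1% Trycol at 200 L/ha (Type B), inoculated before or after spraying. Inoculated plants held 3 days at 20 °C, 100% RH, then greenhouse; % disease control from severity versus untreated plants.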

[2] = Type B (low volume, EC formulation, track sprayer 200 L/ha) assay, leaf blotch of wheat, SEPTTR field isolate (FI SEPTTR); conditions: Zymoseptoria tritici, 72 h
Summary of the method: as §1

[3] = tested on: Mycosphaerella graminicola; Anamorph: Septoria tritici; Bayer Code SEPTTR (standard laboratory isolate, SI SEPTTR); test: Type B (low volume, EC formulation, track sprayer 200 L/ha) assay, leaf blotch of wheat, standard laboratory SEPTTR isolate (SI SEPTTR); conditions: Zymoseptoria tritici, 72 h
Protocol: Example A: Evaluation of Fungicidal Activity: Leaf Blotch of Wheat (Mycosphaerella graminicola; Anamorph: Septoria tritici; Bayer Code SEPTTR)
For Type A assays, technical grades of the experimental fungicides in Table 4 below were dissolved in acetone, and then mixed with nine volumes of water containing 110 ppm Triton X-100. The fungicide solutions were applied onto wheat seedlings using an automated booth sprayer. For Type B assays, emulsifiable concentrate (EC) formulations of technical grades of the experimental fungicides in Table 4 below were prepared at 10% (w/v), and then mixed with 150 volumes of 0.1% Trycol 5941. These solutions were applied onto wheat seedlings using an automated track sprayer at 200 L/ha. All sprayed plants were allowed to air dry prior to further handling.
Wheat plants (variety Yuma) were grown from seed in a greenhouse in 50% mineral soil/50% soil-less Metro mix until the first leaf was fully emerged, with 7-10 seedlings per pot. Prior to or after application of experimental fungicides, plants were inoculated either with spores of a standard laboratory SEPTTR isolate (SI SEPTTR) or with spores from a SEPTTR field isolate collected from Wellsbourne, England in 2012 (FI SEPTTR). After inoculation the plants were kept for 3 days at 20° C. in 100% relative humidity (one day in a dark dew chamber followed by two days in a lighted dew chamber). Plants were then transferred to a 20° C. greenhouse for disease development. When disease symptoms were fully expressed on untreated plants, infection levels on treated plants were assessed on a scale of 0 to 100 percent disease severity. Percent disease control was calculated using the ratio of disease severity on treated plants relative to untreated plants.

[4] = standard laboratory isolate, high volume, 50 ppm, 1 Day Protectant, wheat (Yuma)
[5] = field isolate, low volume EC, 100 g/ha, 3 Day Curative, wheat (Yuma), read-out: Disease Control, FI SEPTTR Type B Assay (100 g/ha) 3 DC
[6] = field isolate, low volume EC, 100 g/ha, 3 Day Protectant, wheat (Yuma), read-out: Disease Control, FI SEPTTR Type B Assay (100 g/ha) 3 DP
[7] = standard laboratory isolate, low volume EC, 100 g/ha, 3 Day Curative, wheat (Yuma), read-out: Disease Control, SI SEPTTR Type B Assay (100 g/ha) 3 DC
[8] = standard laboratory isolate, low volume EC, 100 g/ha, 3 Day Protectant, wheat (Yuma), read-out: Disease Control, SI SEPTTR Type B Assay (100 g/ha) 3 DP

| Compound | pest or weed control at 50 ppm [1, 4] [%] | pest or weed control at 100 g/ha [2, 5] [%] | pest or weed control at 100 g/ha [2, 6] [%] | pest or weed control at 100 g/ha [3, 7] [%] | pest or weed control at 100 g/ha [3, 8] [%] | pest or weed control at 50 ppm [1] [%] | pest or weed control at 100 g/ha ([2]; read-out: Disease Control, FI SEPTTR Type B Assay (100 g/ha) 3 DC) [%] | pest or weed control at 100 g/ha ([2]; read-out: Disease Control, FI SEPTTR Type B Assay (100 g/ha) 3 DP) [%] | pest or weed control at 100 g/ha ([3]; read-out: Disease Control, SI SEPTTR Type B Assay (100 g/ha) 3 DC) [%] | pest or weed control at 100 g/ha ([3]; read-out: Disease Control, SI SEPTTR Type B Assay (100 g/ha) 3 DP) [%] |
| --- | --- | --- | --- | --- | --- | --- | --- | --- | --- | --- |
| Cc1cc(OC(F)(F)F)ccc1-c1ccc(C(O)(c2cncnc2)C(C)(C)C)nc1 (stereo not shown) [Compound 117] | 80 to 100 | 80 to 100 | 80 to 100 | 80 to 100 | 80 to 100 |  |  |  |  |  |
| Cc1ncncc1C(O)(c1ccc(-c2ccc(OC(F)(F)F)cc2)cn1)C(C)(C)C (stereo not shown) [Compound 118] | 80 to 100 | 80 to 100 | 80 to 100 | 80 to 100 | 80 to 100 |  |  |  |  |  |
| CC(C)(C)C(O)(c1cncnc1)c1ccc(-c2ccc(OCC(F)(F)F)cc2)cn1 (stereo not shown) [Compound 120] | 80 to 100 | 80 to 100 | 60 to 79 | 80 to 100 | 80 to 100 |  |  |  |  |  |
| CC(C)(C)C(O)(c1cncnc1)c1ccc(-c2ccc([Si](C)(C)C)cc2)cn1 (stereo not shown) [Compound 121] |  |  |  |  |  | 80 to 100 | 80 to 100 | 60 to 79 | 80 to 100 | 80 to 100 |
| Cn1cc(-c2ccc(C(O)(c3cncnc3)C(C)(C)C)nc2)cn1 (stereo not shown) [Compound 122] | 80 to 100 | 60 to 79 | 60 to 79 | 80 to 100 | 80 to 100 |  |  |  |  |  |
| CC(C)(C)C(O)(c1cncnc1)c1ccc(-c2ccc(OC(F)(F)F)cc2F)cn1 (stereo not shown) [Compound 124, 1-(5-(2-fluoro-4-(trifluoromethoxy)phenyl)pyridin-2-yl)-2,2-dimethyl-1-(pyrimidin-5-yl)propan-1-ol] | 80 to 100 | 80 to 100 | 80 to 100 | 80 to 100 | 80 to 100 |  |  |  |  |  |
| CC(C)(C)C(O)(c1cncnc1)c1ccc(-c2ccc(SC(F)(F)F)cc2)cn1 (stereo not shown) [Compound 125] | 80 to 100 | 80 to 100 | 60 to 79 | 80 to 100 | 80 to 100 |  |  |  |  |  |
| Cc1cc(-c2ccc(CC(F)(F)F)nc2)cnc1C(O)(c1cncnc1)C(C)(C)C (stereo not shown) [Compound 131] | 80 to 100 | 60 to 79 | 60 to 79 | 80 to 100 | 60 to 79 |  |  |  |  |  |
| CC(C)(C)c1ccc(-c2ccc(C(O)(c3cccnc3)C(C)(C)C)nc2)cc1 (stereo not shown) [Compound 143] | 80 to 100 | 80 to 100 | 80 to 100 | 80 to 100 | 60 to 79 |  |  |  |  |  |
| CC(C)(C)C(O)(c1cccnc1)c1ccc(-c2ccc(C3(C#N)CC3)cc2)cn1 (stereo not shown) [Compound 145] | 80 to 100 | 80 to 100 | 80 to 100 | 80 to 100 | 60 to 79 |  |  |  |  |  |
| Cc1cc(OC(F)(F)F)ccc1-c1ccc(C(O)(c2cccnc2)C(C)(C)C)nc1 (stereo not shown) [Compound 146] | 80 to 100 | 80 to 100 | 60 to 79 | 80 to 100 | 80 to 100 |  |  |  |  |  |
| CC(C)(C#N)c1ccc(-c2ccc(C(O)(c3cncnc3)C(C)(C)C)nc2)cc1 (stereo not shown) [Compound 152] | 80 to 100 | 80 to 100 | 80 to 100 | 80 to 100 | 80 to 100 |  |  |  |  |  |
| Cc1ncncc1C(O)(c1ccc(-c2ccc(OC(F)(F)F)cc2F)cn1)C(C)(C)C (stereo not shown) [Compound 157] | 80 to 100 | 80 to 100 | 80 to 100 | 80 to 100 | 80 to 100 |  |  |  |  |  |
| Cc1cc(C2(C#N)CC2)ccc1-c1ccc(C(O)(c2cncnc2)C(C)(C)C)nc1 (stereo not shown) [Compound 158] | 80 to 100 | 80 to 100 | 80 to 100 | 80 to 100 | 80 to 100 |  |  |  |  |  |
